# Reference: patent US10864163B2, “Therapeutic agents and delivery with microspheres” (UCL Business PLC, priority 2013, dated 2020)
# Entries after “also recorded” stand apart in the source; their conditions may differ.
# Tests used:
# [1] = Attachment of API (doxorubicin) to wetted and non-wetted TIPS microspheres; type: physicochemical; settings: doxorubicin 0.5 mg/ml in water, overnight at room temperature, 150 rpm, centrifuged at 13000 rpm for 20 seconds
# Protocol: 100 mg of TIPS microspheres was added to a 7 ml plastic container. The microspheres were wetted with 70% ethanol for 1 minute. The alcohol was removed and the microspheres washed with 5 ml deionised water. 1 ml of doxorubicin (0.5 mg/ml in water) was added to the container. The microspheres and doxorubicin solution were mixed by pipetting and incubated overnight at room temperature with agitation at 150 rpm on an orbital shaker. Control non-wetted microspheres were treated in the same manner. The microspheres were centrifuged at 13000 rpm for 20 seconds.
# [2] = Release of API from doxorubicin-loaded wetted TIPS microspheres (FIG. 11d); type: physicochemical; settings: doxorubicin attached to pre-wetted TIPS microspheres
compound,measurement,setting,value
COc1cccc2c1C(=O)c1c(O)c3c(c(O)c1C2=O)C[C@@](O)(C(=O)CO)C[C@@H]3O[C@H]1C[C@H](N)[C@H](O)[C@H](C)O1 [doxorubicin],"binding of doxorubicin to the surface of non-wetted, hydrophobic microspheres",[1]; control non-wetted microspheres,"separated from the non-wetted samples; also recorded: does not bind to the surface of non-wetted, hydrophobic microspheres"
same,binding of doxorubicin to the surface of wetted TIPS microspheres,[1]; microspheres pre-wetted with 70% ethanol,remained bound to the surface of the wetted microspheres; also recorded: binds well to the surface of pre-wetted TIPS microspheres
same,release of the API from wetted TIPS microspheres,[2],controlled release of the API is observed over a prolonged period
